Laboratory results: US5073539A, “Transdermal administration of zwitterionic drugs” (Ciba-Geigy Corporation, priority 1990, dated 1991)
Where a name gives a salt, the structure may show the parent alone.

Columns and labels:
[1] = Permeation rate through human epidermis; type: in vitro ADME
Text: (§1) In the examples, the solubilities of free zwitterion and enhanced solubilities of various salts thereof are reported in various degrees in the following solvents: water, ethanol, octanol, chloroform and human stratum corneum. Permeation rates are also shown for these zwitterionic compounds and enhanced fluxes of the salts thereof through materials including polyurethane. While such materials are impractical for transdermal devices for free zwitterions, these materials are practical for the transdermal delivery of salts of zwitterions. The solubility in water is given as a model of polar solvents, while the octanol and chloroform are given as models for skin lipids. The critical factor for inclusion of a salt within the invention is that relative to its non salt zwitterion parent compound, the salt form of the invention has a greater solubility in both polar and lipid skin models.
(§2) Average of values measured in triplicate.

[2] = Solubility in chloroform at 25 deg. C. (model of skin lipids); type: physicochemical; conditions: at 25 deg. C.; average of triplicate
Text: as §1, §2

[3] = Permeation rate through polyurethane; type: physicochemical
Text: as §1, §2

[4] = Solubility in octanol at 25 deg. C. (model of skin lipids); type: physicochemical; conditions: average of triplicate
Text: (§3) The solubility in water is given as a model of polar solvents, while the octanol and chloroform are given as models for skin lipids.

[5] = Solubility in ethanol at 25 deg. C.; type: physicochemical; conditions: average of triplicate
[6] = Solubility in human stratum corneum; type: physicochemical; conditions: average of triplicate
Text: as §1, §2

[7] = Solubility in water at 25 deg. C.; type: physicochemical; conditions: average of triplicate
Text: as §3

SMILES: NCC(CC(=O)O)c1ccc(Cl)cc1 (stereo not drawn) [Bac. hydrobromide]
- Permeation rate through human epidermis ([1]; average of triplicate): 25.49 ug/cm 2/hr
- R.E. (relative enhancement) of permeation rate through human epidermis ([1]; relative to free zwitterion): 216.02
- Solubility in chloroform [2]: 13.7 µg/mL
- Permeation rate through polyurethane ([3]; average of triplicate): 738.9 ug/cm 2/hr
- R.E. (relative enhancement) of permeation rate through polyurethane ([3]; relative to free zwitterion): 138.89
- Solubility in octanol [4]: 477.05 µg/mL
- Solubility in ethanol [5]: 129569.7 µg/mL
- Solubility in human stratum corneum [6]: 292.2 µg/mL
- Solubility in water [7]: 351946.8 µg/mL
